ChEMBL document CHEMBL5370691, “Novel Pyrido[3,2-d]pyrimidines as HPK1 Inhibitors for Treating Cancer and Inflammatory and Autoimmune Diseases” (ACS Med Chem Lett, 2023)

Target: Mitogen-activated protein kinase kinase kinase kinase 1 (Homo sapiens, UniProt Q92918)
Experiment: Inhibition of N-terminal GST-tagged full-length human HPK1 expressed in baculovirus infected Sf21 cells using MBP as substrate preincubated for 15 mins followed by substrate addition and measured after 120 mins in presence of ATP by ADP-glo assay

Mitogen-activated protein kinase kinase kinase kinase 1, sequence (Q92918 whole entry): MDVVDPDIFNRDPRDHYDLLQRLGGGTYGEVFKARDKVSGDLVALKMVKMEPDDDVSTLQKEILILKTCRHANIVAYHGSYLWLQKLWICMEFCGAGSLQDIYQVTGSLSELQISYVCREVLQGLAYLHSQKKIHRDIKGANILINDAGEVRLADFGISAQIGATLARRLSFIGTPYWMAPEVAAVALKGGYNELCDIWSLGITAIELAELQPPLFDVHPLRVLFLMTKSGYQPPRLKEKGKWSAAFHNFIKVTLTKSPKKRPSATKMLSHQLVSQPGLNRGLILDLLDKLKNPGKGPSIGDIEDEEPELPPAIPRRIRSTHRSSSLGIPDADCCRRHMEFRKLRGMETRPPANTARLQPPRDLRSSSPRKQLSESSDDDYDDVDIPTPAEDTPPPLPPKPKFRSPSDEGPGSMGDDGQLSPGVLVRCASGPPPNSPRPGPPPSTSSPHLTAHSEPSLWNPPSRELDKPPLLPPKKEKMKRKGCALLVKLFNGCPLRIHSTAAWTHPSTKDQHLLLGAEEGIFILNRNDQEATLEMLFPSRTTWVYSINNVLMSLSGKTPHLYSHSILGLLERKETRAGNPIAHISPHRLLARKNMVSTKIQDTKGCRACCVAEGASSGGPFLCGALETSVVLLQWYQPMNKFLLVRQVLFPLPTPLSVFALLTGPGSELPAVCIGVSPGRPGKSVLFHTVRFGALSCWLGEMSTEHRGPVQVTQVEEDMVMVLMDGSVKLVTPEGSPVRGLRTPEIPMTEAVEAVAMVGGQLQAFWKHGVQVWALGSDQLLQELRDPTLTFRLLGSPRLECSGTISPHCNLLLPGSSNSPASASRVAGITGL

Row | IC50 [µM] | SMILES
1 | < 0.1 | CN1CCN(c2ccc(-c3cc(C(N)=O)c4ncnc(N[C@H]5CCCNC5)c4n3)cn2)CC1
2 | < 0.1 | COCCOc1ccc(-c2cc(C(N)=O)c3ncnc(N[C@H]4CCCNC4)c3n2)c(C#N)c1
3 | < 0.1 | NC(=O)c1cc(-c2ccc(F)cc2)nc2c(N[C@H]3CCCNC3)ncnc12
4 | < 0.1 | NC(=O)c1cc(-c2ccc(C3(O)CC3)cc2)nc2c(N[C@H]3CCCNC3)ncnc12
5 | < 0.1 | COc1ccccc1-c1cc(C(N)=O)c2ncnc(N[C@H]3CCCNC3)c2n1
6 | < 0.1 | CS(=O)(=O)Cc1ccc(-c2cc(C(N)=O)c3ncnc(N[C@H]4CCCNC4)c3n2)cc1
